We go through 6 compounds from paper PMC10451668, “Natural Acetogenins, Chatenaytrienins-1, -2, -3 and -4, Mitochondrial Potential Uncouplers and Autophagy Inducers—Promising Anticancer Agents” (Antioxidants, 2023).

One data set has as its system T24 bladder cancer cells. Also on record: method as in PMID 16154156. The conditions noted are these: cited from earlier work.
Data set [1] deals with Jurkat cells. Description: Oxidative stress and early apoptosis (MitoSOX Red and annexin V, MitoStress Kit). In kind it is cell-based, human. An excerpt:
Changes in the mitochondrial membrane potential (ΔΨ) in Jurkat cells induced by treatment with the synthesized compounds were detected using MitoSOX Red, a positively charged probe that accumulates rapidly in mitochondria and as such can be used to detect superoxide/ROS production within mitochondria using fluorometry, microscopy, or flow cytometry. Live cells induced a low level of MitoSOX Red fluorescence, while cells with scattered mitochondrial membrane potential caused much higher MitoSOX Red fluorescence. Annexin V is a dye commonly used to detect early signs of apoptosis. […] Thus, using two different dyes, MitoSOX Red and annexin V (CF488A), in the FlowCellect™ MitoStress Kit (FCCH100109), we analyzed the mitochondrial membrane potential dissipation and associated apoptosis in Jurkat cells in response to the synthesized chatenaytrienins.
Therefore, simultaneous detection of mitochondrial superoxide generation (detected by MitoSOX Red membrane-penetrating dye) and expression of phosphatidylserine on the cell surface of apoptotic cells (assessed by binding of annexin V) in the same cell sample provides an accurate evaluation of the ability of the test compound to initiate oxidative stress in cell culture and induce apoptosis.

For a further data set, the system named is Jurkat cell lysates. The data set is described as follows: Multiplex analysis of signaling, genotoxicity and early apoptosis proteins (MILLIPLEX MAP, Luminex). Type of data set: cell-based, human. Here is the method: Multiplex analysis was performed according to a previously published method. MILLIPLEX®MAP technology is used to determine the total protein or phosphorylated protein levels of various biological analytes, such as kinases or signaling proteins, including CREB, ERK/MAP, p70 S6, p21, p38, PI3K/AKT/mTOR, JNK (A), p53, MDM2, Bcl-2/Bax, STAT3 and STAT5, Nf-kB, Caspase 3-8-9, JNK, ATM, Chk1, Chk2, and H2AX, in cell lysates using the Luminex® system ((MILLIPLEX Multi-Pathway Magnetic Bead 9-Plex—Cell Signaling Multiplex Assay kit, Merk, Germany). This MILLIPLEX®MAP technology provides an alternative to Western blotting and immunoprecipitation and has several important advantages, such as more accurate measurement of small amounts of protein and the elimination of analyte loss during sample preparation. The multiplex immunoassay (MILLIPLEX 48-680MAG; Merck Millipore, Germany) was performed in Millipore 96-well plates to detect changes in concentrations of phosphorylated and unphosphorylated proteins p53, MDM2, p21, p38, PI3K/AKT/mTOR, Bcl-2/Bax, STAT3 and STAT5, Nf-kB, Caspase 3 -8-9, CREB, ERK/MAP, p70 S6, JNK, ATM, Chk1, Chk2, and H2AX in Jurkat cell lysates.
The levels of phosphorylated and non-phosphorylated proteins were analyzed using MILLIPLEX® map technology to study the analytes in the same sample within a fairly short time. Various deviations in protein concentration due to external factors or detection errors that could affect the results of the experiment were thereby reduced to zero.
The expression of p53, MDM2, p21, p38, PI3K/AKT/mTOR, Bcl-2/Bax, STAT3 and STAT5, Nf-kB, Caspase 3-8-9, CREB, ERK/MAP, p70 S6, JNK, ATM, Chk1, Chk2, and H2AX proteins in lysate samples of Jurkat tumor cells were studied using Luminex technology with the MILLIPLEX® MAP 9-Plex Multi-Pathway 9-plex Magnetic Bead Kit. This bead-based assay involved color-coded fluorescent particles pre-coated with specific antibodies targeting 9 major kinases in signaling pathways.

The next data set has as its system Jurkat tumor cell line. Description: Assessment of cytochrome c loss (FlowCellect Cytochrome c Kit). In kind it is cell-based, human. The conditions noted are these: compound at CC50, incubation 3 h, anti-cytochrome c-FITC. How it is done: Quantification of cytochrome c release from mitochondria in apoptotic cells was presented to detect the mitochondrial pathway of apoptosis in cells using flow cytometry with the FlowCellect™ Cytochrome c Kit (FCCH100110). For this, cells were treated with FITC-conjugated antibodies against cytochrome c and control anti-IgG1-FITC, together with the use of an optimized fixation procedure, permeabilization, and blocking buffer (Luminex®, USA). […] Jurkat cells were incubated for 4 h with the synthesized substances at a concentration corresponding to their 24-h CC50 in a culture plate and assessed using the NovoCyte Penteon Flow Cytometer System (Agilent, 5301 Stevens Creek Blvd., Santa Clara, CA, USA). The obtained data were processed using NovoExpress® software (ACEA).

For data set [2], the system named is Jurkat cells. The data set is described as follows: Detection of mitodamage: mitochondrial membrane potential and apoptosis (MitoSense Red, annexin V, 7-AAD). Type of data set: cell-based, human. The conditions noted are these: compound at CC50, 4 h; for cells in late apoptosis (stained with 7-AAD): Jurkat; for Jurkat tumor cells with the Δψ dissipation phenomenon: MitoSense Red. The text has this:
The use of reagents MitoSense Red, annexin V, and 7-AAD in the Millipore FlowCellect™ MitoDamage Kit allowed us to gain information on early, mid, and late apoptosis with one simple assay. […] After this time, the cells were dissociated using an accutase solution, stained, and analyzed using the NovoCyte Penteon Flow Cytometer System (Agilent, 5301 Stevens Creek Blvd., Santa Clara, CA, USA), according to the manufacturer’s protocols for the FlowCellect™ MitoDamage Kit and FlowCellect™ Oxidative Stress Characterization Kit (Merck).
Detection of mitochondrial potential dissipation using MitoSense Red, annexin V, and 7-AAD provided a simultaneous measurement of three important parameters of the cell state within the same cell sample: the state of the mitochondrial potential (Δψ), detected by the membrane-penetrating MitoSense Red dye; the expression of phosphatidylserine on the cell surface of apoptotic cells, assessed by the binding of annexin V to externalized phosphatidylserine; and the binding of 7-AAD to DNA in cells in the late stages of apoptosis. Multiparametric evaluation of these indicators of cell viability made it possible to determine the correlation and relationship between oxidation dissipation and phosphorylation with apoptosis.

In data set [3] the test system is Jurkat cells. Description: Assessment of autophagy (anti-LC3/FITC, flow cytometry). The note with it: 0.5 CC50, 48 h. Type of data set: cell-based, human. The text has this:
Autophagy is involved in various physiological processes and its changes are associated with the pathogenesis of diseases such as neurodegenerative diseases, cardiovascular complications, cancer, and infectious diseases, as well as with physiological processes such as innate and specific immunity, pathogen clearance, lymphocyte selection, antigen presentation, and production of immunoglobulins. Therefore, the determination of LC3 protein inside autophagosomes without the cytosolic form of LC3-I at the stage of selective cell permeability was measured using flow cytometry. Thus, using the FlowCellect™ LC3-GFP Reporter Autophagy Assay Kit (FCCH100170 and FCCH100181), flow cytometry allowed for a rapid assay that could be combined with other phenotypic and functional markers to characterize different cell populations.
Canonical autophagy is associated with the conversion of LC3 protein (an autophagosome marker) from the cytoplasmic form of LC3I to the lipid-bound form of LC3II, which is associated with the membranes of maturing autophagosomes. The autophagy process can be conveniently classified into several stages. First, induction and translocation of the cytoplasmic LC3 protein occur due to the influence of external stimuli (adverse environmental influences)—the process is initiated by external/internal stimuli (for example, nutrient depletion or hypoxia). Then, the formation of autophagosomes begins, which are double-membrane vesicles that include the LC3 protein. This protein regulates the fusion of autophagosomes and lysosomes. It exists in two fractions—cytoplasmic LC3-I and LC3-II, isolated in the autophagosomal membrane. The LC3-II protein fraction was specified in our work, as its detection is a reliable indicator of the processes of autophagy in the cell.

The test system of data set [4] is Fibroblasts (PCS-201-018). Description: Cytotoxicity assay (7-AAD viability, flow cytometry). The conditions noted are these: normal fibroblasts; ± standard error of the mean, 95% CI in parenthesis. Type of data set: cell-based, human.
Another data set has as its system Hek293. Described as above. In kind it is cell-based, human. The conditions noted are these: Hek293, conditionally normal line; ± standard error of the mean, 95% CI in parenthesis. An excerpt: (§1) Cells, including Jurkat E6.1 (human leukemic T cell lymphoblasts, catalogue no. 88042803), K562 (human chronic myelogenous leukemia cells, catalogue no. 89121407), U937 (human histiocytic lymphoma cells, catalogue no. 85011440), HL60 (human promyelocytic leukemia cells, catalog no. 98070106), HEK293 (human embryonic kidney cells with adenovirus, catalog no. 85120602), and human lung fibroblasts Ce (catalogue no. 90011883), were purchased from the European Collection of Authenticated Cell Cultures (UK Health Security Agency) and cultured according to standard protocols using sterile techniques. […] Cells were maintained in RPMI 1640 (Jurkat, K562, U937, and HL60) and DME M (fibroblast and HEK293) (Gibco) supplemented with […] glutamine, 10% FBS (Sigma), and 100 units/mL penicillin-streptomycin (Sigma). All types of cells were grown under an atmosphere of 5% CO2 at 37 °C. The cells were subcultured at 2–3-day intervals. Cells were then seeded in 24-well plates at 5 × 10^4 cells per well and incubated overnight. Jurkat, K562, U937, HL60, HEK293, and fibroblast cells were subcultured at 2-day intervals with a seeding density of 1 × 10^5 cells per well in 24-well plates in RPMI with 10% FBS.
(§2) Viability (live/dead) assessment was performed by staining cells with 7-AAD (7-aminoactinomycin D; Biolegend). After treatment, cells were harvested, washed 1–2 times with phosphate-buffered saline (PBS), and centrifuged at 400× g for 5 min. Cell pellets were resuspended in 200 µL of flow cytometry staining buffer (PBS without Ca^2+ and Mg^2+, 2.5% FBS) and stained with […] of 7-AAD staining solution for 15 min at room temperature in the dark. Samples were assessed using the NovoCyte Penteon Flow Cytometer System (Agilent, 5301 Stevens Creek Blvd., Santa Clara, CA, USA). Detection of 7-AAD emission was collected through a 675/30 nm filter in the FL4 channel.

The test system of another data set is HL60. The description is as above. Type of data set: cell-based, human. The conditions noted are these: ± standard error of the mean, 95% CI in parenthesis.
Description: as §1, §2

In another data set the test system is Jurkat. Described as above. Type of data set: cell-based, human. The note with it: ± standard error of the mean, 95% CI in parenthesis.
Description: as §1, §2

A further data set relates to U937. The data set is described as above. Type of data set: cell-based, human. The conditions noted are these: ± standard error of the mean, 95% CI in parenthesis.
Description: as §1, §2

The test system of another data set is K562. The description is as above. In kind it is cell-based, human. The conditions noted are these: ± standard error of the mean, 95% CI in parenthesis.
Description: as §1, §2

Take `CCCCCC[C@H](O)CCC[C@H](O)[C@H]1CC[C@H]([C@H]2CC[C@H]([C@H](O)CCCCCCCCCCCCC3=C[C@H](C)OC3=O)O2)O1` [squamocin]: the “effect on cell cycle” value in the data set on T24 bladder cancer cells was “blocked cells in the G1 phase”.
With `CCCCCC[C@H]1C(=O)O[C@H](C)[C@H](NC(=O)c2cccc(NC=O)c2O)C(=O)O[C@@H](C)[C@@H]1OC(=O)CC(C)C` [antimycin, reference compound], the “intact (live) cells in the sample” value with Jurkat cells [1] (antimycin 100 µM, 4 h) was determined as 12.65%.
Turning to `CCCCCCCCCCCC/C=C\CC/C=C\CCCCCCCCCCCCC1=C[C@H](C)OC1=O` [muricadienin, reference compound], the “expression of caspase-8” value with Jurkat cell lysates (6 h and 12 h) is “did not significantly affect”. In the data set with Jurkat cell lysates (after 12 h of incubation, versus control), the “concentration of p53” value is listed as “significantly increased”. The “levels of all types of kinase proteins (CREB, JNK, NFkB, p38, ERK1/2, Akt, p70S6K, STAT3, STAT5)” value with Jurkat cell lysates (compound at CC50, 4 h, MFI versus intact cells) is reported as “most pronouncedly reduced”. Besides, in the data set with Jurkat cell lysates (especially after 12 h, level exceeded control), the “cleaved caspase-9” value was “promoted the accumulation”. Besides, the “level of BAD protein” value in the data set with Jurkat cell lysates (first 6 h, within 12 h began to increase again, not reaching control) is “decreased”.
Take `CN[C@@H]1C[C@H]2O[C@@](C)([C@@H]1OC)n1c3ccccc3c3c4c(c5c6ccccc6n2c5c31)C(=O)NC4` [staurosporine, reference compound]: in the data set on Jurkat tumor cell line, the “cells with cytochrome c released into the cytoplasm (Negative gate)” value (“cells … (Negative gate)” for short) came to 80.23%. Further, in the data set with Jurkat cells [2], the “cells in late apoptosis (stained with 7-AAD)” value (“cells in late apoptosis” below) is reported as 2.48%.
chatenaytrienin-4 [compound 4]: the “cells with autophagy (gate M3-2)” value in the data set on Jurkat cells [3] was 56.09%. In addition, the “cells … (Negative gate)” value in the data set on Jurkat tumor cell line was determined as 42.10%. For the same compound, the CC50 amounted to 980 ± 40 nM in [4]; 530 ± 10 nM in the data set with Hek293; 190 ± 20 nM in the data set with HL60; 160 ± 10 nM in the data set on Jurkat; 130 ± 50 nM in the data set on U937; 130 ± 40 nM in the data set with K562. For the same compound, in the data set with Jurkat cells [1] (compound at CC50, 4 h, MitoSOX Red and annexin V), the “cells demonstrating oxidative stress along with the marker of early apoptosis, annexin” value came out at 26.8%. For the same compound, the “cells in late apoptosis” value in the data set on Jurkat cells [2] is 1.88%. Also, the “Jurkat tumor cells with the Δψ dissipation phenomenon” value with Jurkat cells [2] is on record as 53.51%.
Turning to chatenaytrienin-3 [compound 3], the “cells with autophagy (gate M3-2)” value with Jurkat cells [3] is listed as 91.50%. The “cells … (Negative gate)” value in the data set with Jurkat tumor cell line is listed as 41.99%. The CC50 in data set [4] was 830 ± 50 nM; with Hek293, 780 ± 40 nM; in the data set on HL60 it was 140 ± 40 nM; with Jurkat, 150 ± 40 nM; in the data set with U937, 180 ± 20 nM; with K562, 90 ± 10 nM. In the data set on Jurkat cells [1] (compound at CC50, 4 h), the “intact (live) cells in the sample” value is 9.9%. For the same compound, the “cells in late apoptosis” value in the data set on Jurkat cells [2] turned out to be 17.01%. Also, the “Jurkat tumor cells with the Δψ dissipation phenomenon” value in the data set on Jurkat cells [2] is recorded as 62.42%.
